These results are taken from US8211633B2, “Viral variants with altered susceptibility to nucleoside analogs and uses thereof” (priority 2002, dated 2012).

Molecules are shown by their SMILES.

For experiment [1], the system named is HBV. Particulars: four week dose-escalation trial; highest dose tested (1 mg/daily); cited from earlier work.
The subject of experiment [2] is HBV. Briefly: Serum HBV DNA level in treated patients (Digene Hybrid Capture II capture hybridization assay). It is filed as in vivo, human. Particulars: for HBV DNA: patient A, on LMV. An excerpt: (§1) Patient A is a person with chronic hepatitis B presented on Day 0 (9 Jul. 1999) with raised serum HBV DNA levels (>2000 pg/ml) and was commenced on LMV treatment immediately (FIG. 2). The patient A was HBsAg positive and anti-HBe positive. Following the initiation of LMV treatment the HBV DNA levels fell to 8 pg/ml over 54 days of therapy. […] By Day 241 the serum ALT peaked at 741 IU/l. The HBV DNA was sequenced and LMV resistant virus was detected. […] The patient was started on open label ETV plus LMV.
Patient B is a liver transplant patient. […] The patient was treated with LMV prior to ETV. The patient is currently on ETV treatment. […] The HBV DNA from this sample was further characterized by sequencing.
Hepatitis B surface antigen (HBsAg), hepatitis B e antigen (HBeAg), anti-HBe and hepatitis B core antigen (HBcAg) specific IgG and IgM were measured using commercially available immunoassays (Abbott Laboratories, North Chicago, Ill., USA). Hepatitis B viral DNA levels were measured using a capture hybridization assay according to the manufacturer's directions (Digene Hybrid Capture II, Digene Diagnostics Inc., Beltsville, Md.). The manufacturers stated cut-off for detecting HBV viremia in clinical specimens was 0.7×10^6 copies/ml or 2.5 pg/ml, [Hendricks D A, et al., Am J Clin Pathol 104: 537-46, 1995].

The subject of experiment [3] is HBV encoding rtI169T+rtV173L+rtL180M+rtM204V. Briefly: Antiviral testing with recombinant HBV/baculovirus in HepG2 cells, replicative intermediates by quantitative real-time PCR, quadruple mutant. To be noted: quadruple mutant rtI169T+rtV173L+rtL180M+rtM204V vs wild type; especially at concentrations up to 0.5 μM ETV; FIG. 11. The experiment is classed as cell-based, hepatitis B virus. How it is done:
The sensitivity/resistance profile of HBV mutants to entecavir was examined in vitro using recombinant HBV/baculovirus. The procedure for analysing the resistance profile is outlined in the following Examples 7-14.
Sf21 insect cells were maintained in supplemented Grace's insect medium further supplemented with 10% v/v heat-inactivated fetal bovine serum (Gibco BRL, Gaithersburg, Md.) in humidified incubator at 28 C with CO2. HepG2 cells were maintained in minimal essential medium supplemented with 10% v/v heat-inactivated fetal bovine serum (MEM-FBS). HepG2 cells were grown in humidified 37° C. incubators at 5% v/v CO2.
The recombinant HBV/baculovirus system used for antiviral testing has been previously described (Delaney et al., Antimicrob Agents Chemother 45(6): 1705-[…], 2001). […] The nucleotide sequence of the plasmid and the point mutations generated by site directed mutagenesis were confirmed by sequencing using the ABI Prism Big Dye Terminator Cycle Sequencing Ready Reaction Kit according to the manufacturer's specifications (Perkin Elmer, Cetus Norwalk, Conn.). […]
HepG2 cells were seeded at approximately 20-40% confluency and then were grown for 16-24 hours before infection. On the day of infection, triplicate plates of cells were trypsinized, and viable cell number was determined with a hemocytometer using Trypan blue exclusion. […]

For the next experiment, the system named is WHV. Particulars: chronically-infected woodchucks; cited from earlier work.
A short description of experiment [4]: Serum ALT level in treated patient A. To be noted: on LMV. The experiment is classed as in vivo, human.
From the text: as §1

[5] abbreviates: day 382 post LMV treatment, day blinded ETV vs LMV phase started.

With `C=C1[C@H](CO)[C@@H](O)C[C@@H]1n1cnc2c(=O)[nH]c(N)nc21` [ETV], in the experiment with HBV [1], the “mean reduction in viremia” value was 2.5 log10. For the same molecule, the “HBV DNA levels” value with HBV [2] (patient B (liver transplant, LMV before ETV), during ETV treatment) was “less than 5 pg/ml”; with HBV [2] (patient B, at 532 days ETV treatment (3857 days post transplant), rise), 993 pg/mL. The “sensitivity to ETV (HBV DNA replicative intermediates by quantitative PCR)” value in experiment [3] is “reduced sensitivity to ETV”. Also, in the experiment with WHV, the “efficacy against WHV” value is “demonstrated efficacy”.

As to `Nc1ccn([C@@H]2CS[C@H](CO)O2)c(=O)n1` [LMV, (−)-β-2′-deoxy-3′-thiacytidine], the ALT in experiment [4] (day 54 post LMV treatment) was 510 IU/L; in experiment [4] (day 87 post LMV treatment), 211 IU/L; in experiment [4] (day 115 post LMV treatment), 106 IU/L; in experiment [4] (day 173 post LMV treatment), 186 IU/L; in experiment [4] (day 199 post LMV treatment) it was 233 IU/L; in experiment [4] (day 241 post LMV treatment), 741 IU/L. The ALT in experiment [4] (day 283 post LMV treatment) was determined as 334 IU/L; in experiment [4] (day 312 post LMV treatment), 238 IU/L; in experiment [4] (day 348 post LMV treatment) it was 349 IU/L; in experiment [4] (setting [5]), 317 IU/L. In addition, the “HBV DNA” value in the experiment with HBV [2] (day 54 post LMV treatment) was found to be 8 pg/mL; in the experiment with HBV [2] (day 173 post LMV treatment) it was 837 pg/mL; with HBV [2] (day 199 post LMV treatment), 1826 pg/mL; in the experiment with HBV [2] (day 241 post LMV treatment), 930 pg/mL; in the experiment with HBV [2] (day 283 post LMV treatment) it was 1631 pg/mL; in the experiment with HBV [2] (day 312 post LMV treatment), 1539 pg/mL. Moreover, the “HBV DNA” value is 1605 pg/mL in the experiment with HBV [2] (day 348 post LMV treatment) and 1303 pg/mL in the experiment with HBV [2] (setting [5]).
